Series [1] in a line: Cytotoxicity against mammalian L6 cells. The settings on record: rat. The class given is cell-based.
Series [2] has as its system Trypanosoma brucei rhodesiense (Tbr, bloodstream-form trypomastigotes, STIB 900 strain). Nature of the series: microbe, parasite or virus in culture. The settings on record: Trypanosoma brucei, read-out: IC50 Tbr (STIB 900). Here is the method:
(§1) Samples with a defined concentration of 2 mg/mL were prepared of each fraction and analyzed by UHPLC/ESI-QqTOF-MS (henceforth abbreviated LC/MS) to determine the analytical fingerprints. After the analysis and dereplication of major peaks (see Figure S1 and Table S1 in Supplementary Material) as well as comparison of the samples’ analytical profiles, 17 representative fractions were selected to be assayed in vitro against Tbr. […] IC50 values for the individual fractions were not determined, in order to save resources and since the % GI data can serve as an approximate substitute in cases where relative activities of similar samples such as the fractions under study are compared.
(§2) Melarsoprol was used as positive control. The cytotoxicity of the compounds was assessed using L6 rat skeletal myoblast cells and podophyllotoxin as a reference drug.
(§3) In vitro assays for the bioactivity against Trypanosoma brucei rhodesiense (Tbr, bloodstream-form trypomastigotes, STIB 900 strain) and cytotoxicity tests against mammalian cells (L6-cell-line from rat skeletal myoblasts) were performed at the Swiss Tropical and Public Health Institute (Swiss TPH, Basel, Switzerland), according to established protocols and as previously described.

Series [3] in a line: in vitro. The settings on record: rat. How it is done:
as §1, §2, §3

Series [4] deals with Trypanosoma brucei rhodesiense (Tbr, bloodstream-form trypomastigotes, STIB 900 strain). To be noted: cited from earlier work.
Where [5] appears, read: mean of two independent determinations ± deviation from the mean, read-out: IC50 Cytotox L6.
Where [6] appears, read: mean of two independent determinations, read-out: IC50 Cytotox L6.

Results on eight compounds are retold here after article PMC8199030, “Salvia officinalis L.: Antitrypanosomal Activity and Active Constituents against Trypanosoma brucei rhodesiense” (Molecules, 2021).

Converted amounts (≈) assume the structure as drawn. “And” between values parts separate entries of the source, which are not always exact repeats. Identical values can stand only once. Like-named read-outs stand apart in the source and are kept apart here.

In general, IC50 refers to the concentration at which inhibition is half-maximal.

For `CO[C@H]1c2cc(C(C)C)c(O)c(O)c2[C@@]23CCCC(C)(C)[C@@H]2[C@@H]1OC3=O` [7-O-Methylrosmanol (5), 7-O-methylrosmanol], the IC50 in series [1] (setting [5]) is 6.6 ± 0.8 µg/mL; in series [1] (setting [6]), 18 µM; in series [2], 8.3 µg/mL and 23 µM. Moreover, the selectivity ratio in series [3] stood at 0.8.

For the compound `COc1c(C(C)C)cc2c(c1O)[C@@]1(C(=O)O)CCCC(C)(C)[C@@H]1CC2` [12-O-Methylcarnosic acid (8), 12-O-methylcarnosic acid], the IC50 in series [1] was 20 µg/mL and 56 µM; in series [2] it was 15 µg/mL and 44 µM. Besides, in series [3], the selectivity ratio was determined as 1.3.

On to `COc1cc2oc(-c3ccc(O)cc3)cc(=O)c2c(O)c1OC` [Cirsimaritin (1), 4’,5-dihydroxy-6,7-dimethoxyflavone], for which the IC50 in series [1] is 4.6 µg/mL and 15 µM. Further, the “IC50 against Tbr, previous study” value in series [4] (previous study) is 3.3 µg/mL (≈ 10.5 µM). Besides, in series [3], the selectivity ratio came to 2.8.

For the compound `CC(C)c1cc2c(c(O)c1O)[C@@]13CCCC(C)(C)[C@@H]1[C@H](OC3=O)[C@H]2O` [Compound 3, rosmanol], the IC50 in series [2] was approximately 8.3 µg/mL (≈ 24 µM).

For the compound `CC(C)c1cc2c(c(O)c1O)[C@@]13CCCC(C)(C)[C@@H]1[C@H](OC3=O)[C@@H]2O` [Epirosmanol (2), epirosmanol], the IC50 in series [1] was 5 µg/mL and 15 µM; in series [2], 3.2 µg/mL and 9.3 µM. For the same compound, in series [3], the selectivity ratio was 1.6.

In the case of `C=C[C@](C)(O)CC[C@H]1C(=C)CC[C@H]2C(C)(C)CCC[C@]12C` [Manool (9), manool], the IC50 stood at 5.6 ± 0.5 µg/mL in series [1] (setting [5]) and 19 µM in series [1] (setting [6]). Further, in series [3], the selectivity ratio was 2.1.

For `CC(C)C1=Cc2ccc3c(c2C(=O)C1=O)CCCC3(C)C` [Miltirone, miltirone, reference compound], the “activity against Tbr, previously reported” value in series [4] is listed as “very potent activity”.

Take `COc1cc([C@@H]2c3cc4c(cc3[C@H](O)[C@H]3COC(=O)[C@H]23)OCO4)cc(OC)c1OC` [Podophyllotoxin, reference compound]: the results for the IC50 in series [1] (setting [5]) and in series [1] (setting [6]) were 0.009 ± 0.001 µg/mL and 0.022 µM, respectively.
